Activity calls are given as the source filed them.
How the values were obtained:
HEK293 = assay: Fluorescence-based counterscreen for potentiators or agonists of NPY-Y2: cell-based high-throughput dose response assay to identify inhibitors of cyclic nucleotide gated ion channel (CNGC) activity. In this assay, the parental HEK293 cell line transfected with a cyclic-nucleotide gated ion channel (CNGC)-based cAMP sensor is used to measure inhibition of isoproterenol-induced CNGC activity by test compound.; assay type: functional; conditions: Homo sapiens;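 further: stimulus is 1 µM isoproterenol at EC100 plus PDE inhibitor Ro 20-1724 at 25 µM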
[1] = molecular target: T1, Neuropeptide Y receptor type 2 (Homo sapiens, UniProt P49146); assay: Fluorescence-based cell-based high-throughput dose response assay for agonists of NPY-Y2. [Related pubchem assays: 1703 (Screening assay (CNGC inhibitors).), 1359 (Screening assay (NPY-Y2 potentiators or agonists).), 1304 (Screening assay (NPY-Y1 potentiators or agonists).), 1710 (Screening assay (NPY-Y2 agonists).), 1791 (Summary AID.)]; assay type: functional
T1 sequence (P49146 whole entry): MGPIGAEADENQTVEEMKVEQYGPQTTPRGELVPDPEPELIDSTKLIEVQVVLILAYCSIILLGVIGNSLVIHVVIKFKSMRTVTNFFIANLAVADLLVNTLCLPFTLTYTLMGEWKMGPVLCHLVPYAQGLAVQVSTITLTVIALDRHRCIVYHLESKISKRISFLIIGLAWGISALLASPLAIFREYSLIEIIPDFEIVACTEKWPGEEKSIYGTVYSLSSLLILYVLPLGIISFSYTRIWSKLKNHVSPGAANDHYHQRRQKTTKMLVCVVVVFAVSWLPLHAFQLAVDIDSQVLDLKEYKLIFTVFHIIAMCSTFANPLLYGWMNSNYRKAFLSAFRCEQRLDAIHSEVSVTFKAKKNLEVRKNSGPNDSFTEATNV

[2] = molecular target: T2, Neuropeptide Y receptor type 1 (Homo sapiens, UniProt P25929); assay: Fluorescence-based counterscreen for agonists of NPY-Y2: cell-based high-throughput dose response assay for agonists of NPY-Y1.; assay type: functional
T2 sequence (P25929 whole entry): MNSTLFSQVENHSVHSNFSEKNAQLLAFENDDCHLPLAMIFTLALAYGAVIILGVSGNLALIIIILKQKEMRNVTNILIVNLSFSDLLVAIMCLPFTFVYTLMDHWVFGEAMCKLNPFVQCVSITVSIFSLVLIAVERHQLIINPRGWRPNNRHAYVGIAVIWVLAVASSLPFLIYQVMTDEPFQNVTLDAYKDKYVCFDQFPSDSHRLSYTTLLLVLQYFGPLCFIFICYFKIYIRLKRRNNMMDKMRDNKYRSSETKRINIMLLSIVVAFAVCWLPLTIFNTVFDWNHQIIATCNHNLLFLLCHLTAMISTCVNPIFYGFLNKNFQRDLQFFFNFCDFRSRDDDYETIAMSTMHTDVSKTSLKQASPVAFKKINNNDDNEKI

[3] = molecular target: Serine/threonine-protein phosphatase PP1-alpha catalytic subunit (Homo sapiens, UniProt P62136); assay: PP1 phosphatase inhibitors, dose response, biochemical, fluorescence (AID 2403);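 further: phosphatase turnover of OMFP into fluorescent 3-O-methylfluorescein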
[4] = inhibitors of intracellular T. cruzi replication, confirmation, NIH3T3 host cells, beta-gal luminescence (AID 2044); assay type: functional, cell-based;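 further: intracellular parasites grown in NIH/3T3 mouse fibroblasts as host cells; luminescent beta-galactosidase reporter signal from transgenic T. cruzi replicating inside host cells; inhibitors lower the luminescence signal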
[5] = molecular target: Serine/threonine-protein phosphatase (Homo sapiens, UniProt Q9BPW0); assay: Counterscreen for inhibitors of PP1: fluorescence-based biochemical high throughput dose response assay to identify inhibitors of Protein Phosphatase 5 (PP5). [Related pubchem assays: 2034 (Summary (PP5 inhibitors)), 1987 (PP5 inhibitors in singlate), 2235 (PP1 inhibitors in singlate)]
[6] = cytotoxicity toward NIH3T3 fibroblasts, dose response, counter-screen, cell-based, ATP luminescence, mouse fibroblasts (AID 2010); assay type: functional;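 further: cells exposed to compound for about 90 hours before reading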
Nonstructural protein 1 = Nonstructural protein 1 (Influenza A virus, UniProt Q194T2); assay type: functional, Influenza A virus (A/California/07/2009(H1N1))
INS1 = assay: beta cell apoptosis inhibitors, cytokine rescue, dose response, luminescence, retest (AID 449756); assay type: functional, cell-based; conditions: Rattus norvegicus;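 further: cell death triggered by IL-1 beta plus TNF-alpha plus IFN-gamma mixture; protective hits raise ATP signal compared with cytokine alone wells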
[7] = molecular target: Photoreceptor-specific nuclear receptor (Homo sapiens, UniProt Q9Y5X4); assay type: functional, cell-based;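 further: CHO-S cells with Gal4-NCOR and VP16-NR2E3 two-hybrid luciferase reporter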
Chain of Photoreceptor-specific nuclear receptor (Q9Y5X4 whole entry, the tested form may be a part): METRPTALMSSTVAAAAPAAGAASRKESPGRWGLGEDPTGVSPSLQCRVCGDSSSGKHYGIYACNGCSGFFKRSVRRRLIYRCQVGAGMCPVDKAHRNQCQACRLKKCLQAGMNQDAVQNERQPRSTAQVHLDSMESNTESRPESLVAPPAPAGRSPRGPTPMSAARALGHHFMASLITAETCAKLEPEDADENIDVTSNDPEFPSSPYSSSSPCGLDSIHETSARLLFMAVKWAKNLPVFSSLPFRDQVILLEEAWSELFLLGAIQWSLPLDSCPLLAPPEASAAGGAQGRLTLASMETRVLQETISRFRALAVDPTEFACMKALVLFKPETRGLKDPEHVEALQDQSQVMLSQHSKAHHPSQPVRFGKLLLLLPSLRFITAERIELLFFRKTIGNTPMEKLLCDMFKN

Chain of Serine/threonine-protein phosphatase PP1-alpha catalytic subunit (P62136 whole entry): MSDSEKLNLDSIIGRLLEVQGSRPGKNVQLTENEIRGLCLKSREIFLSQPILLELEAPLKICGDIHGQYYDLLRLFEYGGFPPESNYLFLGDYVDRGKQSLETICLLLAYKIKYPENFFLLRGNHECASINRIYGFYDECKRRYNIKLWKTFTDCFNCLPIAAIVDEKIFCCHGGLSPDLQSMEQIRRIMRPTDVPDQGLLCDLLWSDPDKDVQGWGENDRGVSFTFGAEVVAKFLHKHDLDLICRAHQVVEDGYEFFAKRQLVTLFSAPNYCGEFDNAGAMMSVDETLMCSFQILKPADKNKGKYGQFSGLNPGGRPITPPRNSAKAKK
Chain of Nonstructural protein 1 (Q194T2 whole entry): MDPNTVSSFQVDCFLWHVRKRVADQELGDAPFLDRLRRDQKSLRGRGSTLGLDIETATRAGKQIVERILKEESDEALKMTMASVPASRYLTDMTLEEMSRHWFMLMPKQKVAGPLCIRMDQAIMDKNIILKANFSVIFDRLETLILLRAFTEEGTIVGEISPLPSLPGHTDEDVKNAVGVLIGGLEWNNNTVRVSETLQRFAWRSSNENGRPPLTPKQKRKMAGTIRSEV
Chain of Serine/threonine-protein phosphatase (Q9BPW0 whole entry): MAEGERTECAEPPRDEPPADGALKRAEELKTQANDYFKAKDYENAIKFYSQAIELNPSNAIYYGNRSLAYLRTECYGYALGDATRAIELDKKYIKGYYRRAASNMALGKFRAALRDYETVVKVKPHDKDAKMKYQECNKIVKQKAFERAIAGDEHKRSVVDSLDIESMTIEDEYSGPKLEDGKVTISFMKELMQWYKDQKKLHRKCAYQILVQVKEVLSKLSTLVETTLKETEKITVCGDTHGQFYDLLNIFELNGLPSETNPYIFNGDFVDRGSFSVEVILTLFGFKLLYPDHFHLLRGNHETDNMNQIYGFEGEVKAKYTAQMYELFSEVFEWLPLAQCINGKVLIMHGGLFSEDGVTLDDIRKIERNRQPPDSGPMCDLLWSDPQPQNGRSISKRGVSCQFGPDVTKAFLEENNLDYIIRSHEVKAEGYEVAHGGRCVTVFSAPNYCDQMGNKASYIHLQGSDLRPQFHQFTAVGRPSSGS

| Compound | EC50 (HEK293) | EC50 [1] | EC50 [2] | IC50 [3] | EC50 [4] | IC50 [5] | EC50 [6] | IC50 (Nonstructural protein 1) | AC50 (INS1) | IC50 [7] |
| --- | --- | --- | --- | --- | --- | --- | --- | --- | --- | --- |
| O=C1C2CC=CCC2C(=O)N1c1ccc(NCCc2ccc(O)cc2)c([N+](=O)[O-])c1 (stereo not given) | 15.3 µM (not active) | > 35.4 µM (not active) | 26.5 µM (not active) | – | – | – | – | – | – | – |
| Nc1nc(-c2ccccn2)nc(N)c1Cc1c(F)cccc1Cl | – | – | – | 7.4 µM (active) | 1.18 µM (active) | 62.2 µM (not active) | 5.25 µM (active) | 6.42 µM (active) | 5.84 µM (active) | 4.08 µM (active) |
